Patent publication US9889170B1, “Synthesis of nanoparticles using Balanites aegyptiaca” (KING SAUD UNIVERSITY, priority 2016, dated 2018)

Columns and labels:
Assay in all cases: Agar well diffusion assay
Type in all cases: cell-based
[1] = test system: Staphylococcus aureus (RCMB 010028); details: 100 μl per well, mean ± SD
[2] = test system: Bacillis subtilis (RCMB 010068); details: samples at 100 μl, mean ± SD
Protocol: (§1) Antimicrobial activity of nanoparticles was determined using the agar well diffusion assay method as described by Holder and Boyce, 1994. Three bacterial (two gram positive and one gram negative) and […], namely, Bacillis suhtilis (RCMB 010067), […] pneumoniae (RCMB 010011), Escherichia coli (RCMB 010052), and Aspergillus fumigatus (RCMB 02568). The tested organisms were sub-cultured on nutrient agar medium (Oxoid laboratories, UK) for bacteria and Sabouraud dextrose agar (Oxoid laboratories, UK) for fungi. Ampicillin and Gentamicin were used as positive control for gram positive and gram negative bacteria, respectively, while Amphotericin B was used for fungi. The plates were done in triplicates. Bacterial cultures were incubated at 37° C. for 24 h, while the fungal cultures were incubated at 25-30° C. for 3-7 days. Antimicrobial activity was determined by measuring the zone of inhibition [A. Agwa, (2000)]. The antimicrobial effect of the B. aegyptiaca nanoparticles was evaluated against different gram positive and gram negative bacteria as well as fungi. The results of the antimicrobial effects of the synthesized nanoparticles are compiled in the Tables below.

[3] = test system: Bacillis subtilis (RCMB 010067); details: 100 μl per well, mean ± SD
Protocol: as §1

[4] = test system: Streptococcus pneumoniae (RCMB 010011); details: samples at 100 μl, mean ± SD
Protocol: as §1

[5] = test system: Aspergillus fumigatus (RCMB 02567); details: samples at 100 μl, mean ± SD
Protocol: as §1

[6] = test system: Aspergillus fumigatus (RCMB 02568); details: 100 μl per well, mean ± SD
Protocol: as §1

[7] = test system: Geotricum candidum (RCMB 05097); details: 100 μl per well, mean ± SD
[8] = test system: Salmonella typhimurium (RCMB 010072); details: 100 μl per well, mean ± SD
[9] = test system: Pseudomonas aeruginosa (RCMB 010043); details: 100 μl per well, mean ± SD
[10] = test system: Escherichia coli (RCMB 010054); details: samples at 100 μl, mean ± SD
[11] = test system: Klebsiella pneumoniae (RCMB 000111); details: 100 μl per well, mean ± SD
[12] = test system: Escherichia coli (RCMB 010052); details: 100 μl per well, mean ± SD
Protocol: as §1

Compound: CC1(C)S[C@@H]2[C@H](NC(=O)[C@H](N)c3ccccc3)C(=O)N2[C@H]1C(=O)O [Ampicillin]
- Mean zone of inhibition beyond well diameter (6 mm) [1]: 27.4 ± 0.18 mm
- Diameter of the inhibition zone beyond the well diameter of 6 mm [2]: 31.3 ± 1.5 mm
- Mean zone of inhibition beyond well diameter (6 mm) [3]: 32.4 ± 0.10 mm
- Diameter of the inhibition zone beyond the well diameter of 6 mm [4]: 21.0 ± 1.0 mm

Compound: C[C@@H]1[C@H](O)[C@@H](C)/C=C/C=C/C=C/C=C/C=C/C=C/C=C/[C@H](O[C@@H]2O[C@H](C)[C@@H](O)[C@H](N)[C@@H]2O)C[C@@H]2O[C@](O)(C[C@@H](O)C[C@@H](O)[C@H](O)CC[C@@H](O)C[C@@H](O)CC(=O)O[C@H]1C)C[C@H](O)[C@H]2C(=O)O [Amphotericin B]
- Diameter of the inhibition zone beyond the well diameter of 6 mm [5]: 21.7 ± 1.5 mm
- Mean zone of inhibition beyond well diameter (6 mm) [6]: 23.7 ± 0.10 mm
- Mean zone of inhibition beyond well diameter (6 mm) [7]: 28.7 ± 0.22 mm

Compound: Gentamicin
- Mean zone of inhibition beyond well diameter (6 mm) [8]: 25.4 ± 0.18 mm
- Mean zone of inhibition beyond well diameter (6 mm) [9]: 17.3 ± 0.15 mm
- Diameter of the inhibition zone beyond the well diameter of 6 mm [10]: 20.3 ± 0.58 mm
- Mean zone of inhibition beyond well diameter (6 mm) [11]: 20.2 ± 0.25 mm
- Mean zone of inhibition beyond well diameter (6 mm) [12]: 22.3 ± 0.18 mm
